Measured values as given in ChEMBL document CHEMBL1201862, “PubChem BioAssay data set” (2004).
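Tested at 5 concentrations; 48 h exposure; 96-well plates; endpoints linearly interpolated, else capped at highest concentration. Abbreviation: GI50, concentration required for 50% inhibition of growth.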 Active and inactive are the calls of the source. Cut-off read from the data, not from the text of the source: active = GI50 up to about 1.1 µM and inactive = higher.

Columns and labels:
Test in all cases: growth of human tumour cells (NCI), 48 h
786-0 = test system: 786-0
A498 = test system: A498
A549 = test system: A549
ACHN = test system: ACHN
BT-549 = test system: BT-549
CAKI-1 = test system: CAKI-1
CCRF-CEM = test system: CCRF-CEM
EKVX = test system: EKVX
HCC 2998 = test system: HCC 2998
HCT-116 = test system: HCT-116
HCT-15 = test system: HCT-15
HL-60 = test system: HL-60
HOP-62 = test system: HOP-62
HOP-92 = test system: HOP-92
HT-29 = test system: HT-29
Hs-578T = test system: Hs-578T
IGROV-1 = test system: IGROV-1
K562 = test system: K562
KM12 = test system: KM12
LOX IMVI = test system: LOX IMVI
M14 = test system: M14
MCF7 = test system: MCF7
MDA-MB-231 = test system: MDA-MB-231
MDA-MB-435 = test system: MDA-MB-435
MDA-N = test system: MDA-N
MOLT-4 = test system: MOLT-4
Malme-3M = test system: Malme-3M
NCI-H226 = test system: NCI-H226
NCI-H23 = test system: NCI-H23
NCI-H460 = test system: NCI-H460
NCI-H522 = test system: NCI-H522
NCI/ADR-RES = test system: NCI/ADR-RES
OVCAR-3 = test system: OVCAR-3
OVCAR-4 = test system: OVCAR-4
OVCAR-5 = test system: OVCAR-5
OVCAR-8 = test system: OVCAR-8
PC-3 = test system: PC-3
RPMI-8226 = test system: RPMI-8226
RXF 393 = test system: RXF 393
SF-268 = test system: SF-268
SF-295 = test system: SF-295
SF-539 = test system: SF-539
SK-MEL-28 = test system: SK-MEL-28
SK-MEL-2 = test system: SK-MEL-2
SK-MEL-5 = test system: SK-MEL-5
SK-OV-3 = test system: SK-OV-3
SN12C = test system: SN12C
SNB-19 = test system: SNB-19
SNB-75 = test system: SNB-75
SR = test system: SR
SW-620 = test system: SW-620
T47D = test system: T47D
TK-10 = test system: TK-10
U-251 = test system: U-251
UACC-257 = test system: UACC-257
UACC-62 = test system: UACC-62
UO-31 = test system: UO-31
COLO 205 = test system: COLO 205
DU-145 = test system: DU-145

SMILES: N/N=C(\C(=O)Nc1ccc([N+](=O)[O-])cc1)C(C1=Nc2cc([N+](=O)[O-])ccc2NC1)[N+](=O)[O-] (configuration not stated)
- GI50 (786-0): > 100 µM (inactive)
- GI50 (A498): > 100 µM (inactive)
- GI50 (A549): 55.8 µM (inactive)
- GI50 (ACHN): 43.1 µM (inactive)
- GI50 (BT-549): > 100 µM (inactive)
- GI50 (CAKI-1): 79.4 µM (inactive)
- GI50 (CCRF-CEM): 65.2 µM (inactive)
- GI50 (EKVX): > 100 µM (inactive)
- GI50 (HCC 2998): > 100 µM (inactive)
- GI50 (HCT-116): 79.1 µM (inactive)
- GI50 (HCT-15): > 100 µM
- GI50 (HL-60): > 100 µM (inactive)
- GI50 (HOP-62): > 100 µM (inactive)
- GI50 (HOP-92): > 100 µM (inactive)
- GI50 (HT-29): 72.4 µM (inactive)
- GI50 (Hs-578T): > 100 µM (inactive)
- GI50 (IGROV-1): > 100 µM (inactive)
- GI50 (K562): > 100 µM (inactive)
- GI50 (KM12): 32 µM (inactive)
- GI50 (LOX IMVI): 74.8 µM (inactive)
- GI50 (M14): > 100 µM (inactive)
- GI50 (MCF7): 44.3 µM (inactive)
- GI50 (MDA-MB-231): > 100 µM (inactive)
- GI50 (MDA-MB-435): 88.3 µM (inactive)
- GI50 (MDA-N): > 100 µM (inactive)
- GI50 (MOLT-4): > 100 µM (inactive)
- GI50 (Malme-3M): > 100 µM (inactive)
- GI50 (NCI-H226): > 100 µM (inactive)
- GI50 (NCI-H23): > 100 µM (inactive)
- GI50 (NCI-H460): 42.2 µM (inactive)
- GI50 (NCI-H522): 25.3 µM (inactive)
- GI50 (NCI/ADR-RES): > 100 µM (inactive)
- GI50 (OVCAR-3): > 100 µM (inactive)
- GI50 (OVCAR-4): > 100 µM (inactive)
- GI50 (OVCAR-5): > 100 µM (inactive)
- GI50 (OVCAR-8): > 100 µM (inactive)
- GI50 (PC-3): > 100 µM (inactive)
- GI50 (RPMI-8226): > 100 µM (inactive)
- GI50 (RXF 393): > 100 µM (inactive)
- GI50 (SF-268): > 100 µM (inactive)
- GI50 (SF-295): > 100 µM (inactive)
- GI50 (SF-539): > 100 µM (inactive)
- GI50 (SK-MEL-28): > 100 µM (inactive)
- GI50 (SK-MEL-2): > 100 µM (inactive)
- GI50 (SK-MEL-5): 74.1 µM (inactive)
- GI50 (SK-OV-3): > 100 µM (inactive)
- GI50 (SN12C): > 100 µM (inactive)
- GI50 (SNB-19): > 100 µM (inactive)
- GI50 (SNB-75): > 100 µM (inactive)
- GI50 (SR): > 100 µM (inactive)
- GI50 (SW-620): 91.4 µM (inactive)
- GI50 (T47D): 75.7 µM (inactive)
- GI50 (TK-10): > 100 µM (inactive)
- GI50 (U-251): > 100 µM (inactive)
- GI50 (UACC-257): > 100 µM (inactive)
- GI50 (UACC-62): > 100 µM (inactive)
- GI50 (UO-31): 22.1 µM (inactive)

SMILES: C=CCCON(C(=O)OC(C)(C)C)c1ccccc1
- GI50 (786-0): 74 µM (inactive)
- GI50 (A498): > 100 µM (inactive)
- GI50 (A549): > 100 µM (inactive)
- GI50 (ACHN): > 100 µM (inactive)
- GI50 (BT-549): > 100 µM (inactive)
- GI50 (CAKI-1): > 100 µM (inactive)
- GI50 (CCRF-CEM): 12.2 µM (inactive)
- GI50 (COLO 205): > 100 µM (inactive)
- GI50 (DU-145): > 100 µM (inactive)
- GI50 (EKVX): > 100 µM (inactive)
- GI50 (HCT-116): 44.6 µM (inactive)
- GI50 (HCT-15): > 100 µM
- GI50 (HL-60): 12.4 µM (inactive)
- GI50 (HOP-62): > 100 µM (inactive)
- GI50 (HOP-92): > 100 µM (inactive)
- GI50 (HT-29): 47.9 µM (inactive)
- GI50 (Hs-578T): > 100 µM (inactive)
- GI50 (IGROV-1): > 100 µM (inactive)
- GI50 (K562): > 100 µM (inactive)
- GI50 (KM12): > 100 µM (inactive)
- GI50 (LOX IMVI): > 100 µM (inactive)
- GI50 (M14): > 100 µM (inactive)
- GI50 (MDA-MB-231): > 100 µM (inactive)
- GI50 (MDA-MB-435): > 100 µM (inactive)
- GI50 (MDA-N): > 100 µM (inactive)
- GI50 (MOLT-4): 42.6 µM (inactive)
- GI50 (Malme-3M): 20 µM (inactive)
- GI50 (NCI-H226): > 100 µM (inactive)
- GI50 (NCI-H23): > 100 µM (inactive)
- GI50 (NCI-H460): > 100 µM (inactive)
- GI50 (NCI-H522): 43.3 µM (inactive)
- GI50 (NCI/ADR-RES): 67 µM (inactive)
- GI50 (OVCAR-3): > 100 µM (inactive)
- GI50 (OVCAR-5): > 100 µM (inactive)
- GI50 (OVCAR-8): > 100 µM (inactive)
- GI50 (PC-3): 4.12 µM (inactive)
- GI50 (RPMI-8226): 6.44 µM (inactive)
- GI50 (RXF 393): > 100 µM (inactive)
- GI50 (SF-268): > 100 µM (inactive)
- GI50 (SF-295): > 100 µM (inactive)
- GI50 (SF-539): > 100 µM (inactive)
- GI50 (SK-MEL-28): > 100 µM (inactive)
- GI50 (SK-MEL-2): > 100 µM (inactive)
- GI50 (SK-MEL-5): > 100 µM (inactive)
- GI50 (SK-OV-3): > 100 µM (inactive)
- GI50 (SN12C): > 100 µM (inactive)
- GI50 (SNB-19): > 100 µM (inactive)
- GI50 (SNB-75): 82.6 µM (inactive)
- GI50 (SW-620): > 100 µM (inactive)
- GI50 (T47D): 95.1 µM (inactive)
- GI50 (TK-10): > 100 µM (inactive)
- GI50 (U-251): > 100 µM (inactive)
- GI50 (UACC-257): > 100 µM (inactive)
- GI50 (UACC-62): > 100 µM (inactive)
- GI50 (UO-31): > 100 µM (inactive)
